We go through 6 compounds from paper PMC4513639 (Molecular pharmacology, 2014).

The target of one test is adenosine deaminase. The settings on record: ref Ingolia et al., 1985; cited from earlier work.
The subject of test [1] is A1-receptor-Y^288A. It is filed as cell-based, human. The settings on record: for receptor upregulation with only one of the inhibitors (immunoblot): sole inhibitor, 2 μM EHNA or 10 μM dipyridamole; for role of blockage of adenosine efflux in receptor upregulation: added to EHNA and 5-iodotubercidin. Background: A western blot detects proteins with antibodies after separation by electrophoresis.

A further test deals with T1, A1 receptor (Homo sapiens, UniProt P30542).
T1 sequence (P30542 1-326): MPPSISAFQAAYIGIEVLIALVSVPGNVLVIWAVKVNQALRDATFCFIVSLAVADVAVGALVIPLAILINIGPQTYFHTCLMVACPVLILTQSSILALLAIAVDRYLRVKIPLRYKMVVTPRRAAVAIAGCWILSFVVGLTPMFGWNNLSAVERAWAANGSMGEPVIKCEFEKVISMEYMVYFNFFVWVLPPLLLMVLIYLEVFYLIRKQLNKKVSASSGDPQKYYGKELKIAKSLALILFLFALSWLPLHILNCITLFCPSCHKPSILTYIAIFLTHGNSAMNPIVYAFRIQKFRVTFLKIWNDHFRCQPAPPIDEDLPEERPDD
As to the kind of experiment: Binding of the inhibitors to the A1 receptor. To be noted: nanomolar to micromolar range.

For another test, the target named is T2, wild-type A1 receptor (Homo sapiens, UniProt P30542).
T2 sequence (P30542 1-326): T1 sequence (P30542 1-326)
It is filed as binding. To be noted: SF-TAP-tagged receptor.

In test [2] the test system is A1-receptor-Y^288A. It is filed as cell-based, human. The settings on record: 24 hours; 1 μM DPCPX or inhibitor combination.
Test [3] deals with A1-receptor-Y^288A. It is filed as cell-based, human. The settings on record: SF-TAP-tagged receptor, 24 hours treatment, 15 nM [3H]DPCPX.
Test [4] deals with A1-receptor-Y^288A. As to the kind of experiment: Confocal microscopy of YFP-tagged A1-receptor-Y288A distribution. It is filed as cell-based, human. To be noted: 1 μM DPCPX or combination of inhibitors.
Test [5] concerns the target T3, A1-receptor-Y^288A (Homo sapiens, UniProt P30542, Y288A).
T3 sequence (P30542 1-326 Y288A): T1 sequence (P30542 1-326) with Y288A
It is filed as binding. To be noted: membranes of untreated cells.

A further test concerns the target human ENT1. To be noted: read-out: affinity; ref Ward et al., 2000; cited from earlier work.
A further test concerns the target human ENT2. The settings on record: read-out: affinity; ref Ward et al., 2000; cited from earlier work.
Setting [6] is: 24 hours, 0.5 μM iodotubercidin.

Substitutions are numbered along the chain they refer to. Where two headings read alike, the source gives them in different places.

With `CCCCCC[C@@H]([C@@H](C)O)n1cnc2c(N)ncnc21` (racemic) [EHNA, Erythro-9-(2-hydroxy-3-nonyl)adenine], the Ki on adenosine deaminase is 33 nM. Besides, in the test with A1-receptor-Y^288A [1] (setting [6]), the “receptor upregulation with only one of the inhibitors (immunoblot)” value is reported as “not present”. For the same compound, the “binding to the A1 receptor” value on A1 receptor is on record as “neither EHNA nor 5-iodotubercidin nor dipyridamole per se, nor their combination, used in the experiments bound to the A1 receptor”.

As to `Nc1ncnc2c1c(I)cn2[C@@H]1O[C@H](CO)[C@@H](O)[C@H]1O` [5-iodotubercidin], the “receptor upregulation with only one of the inhibitors (immunoblot)” value in the test with A1-receptor-Y^288A [1] (setting [6]) is “not present”. For the same compound, the “binding to the A1 receptor” value at A1 receptor was “neither EHNA nor 5-iodotubercidin nor dipyridamole per se, nor their combination, used in the experiments bound to the A1 receptor”.

For the compound `CCCn1c(=O)c2[nH]c(C3CCCC3)nc2n(CCC)c1=O` [DPCPX, 8-cyclopentyl-1,3-dipropylxanthine], the Bmax at wild-type A1 receptor (hypoxic cells (5% O2, 24 hours)) is listed as 15.0 ± 0.8 pmol/mg; on wild-type A1 receptor (normoxic cells) it was 12.2 ± 0.3 pmol/mg; at A1-receptor-Y^288A [5] it was 486.3 ± 80.0 fmol/mg. For the same compound, the “YFP fluorescence (flow cytometry)” value in the test with A1-receptor-Y^288A [2] is listed as “substantial accumulation of YFP fluorescence”. In the test on A1-receptor-Y^288A [3], the “binding of [3H]DPCPX by the receptors accumulated after treatment” value was “did bind the radioligand”. Moreover, the “distribution of receptor fluorescence (confocal)” value in the test on A1-receptor-Y^288A [4] is “the fluorescence was visualized on the cell surface”. Besides, in the test on A1-receptor-Y^288A [1] (4 hours preincubation, then cycloheximide 50 μg/ml for 2 or 4 hours), the “fate of receptor after cycloheximide block (mature glycosylated forms)” value is “concomitant increase in the mature glycosylated forms of the receptor”. For the same compound, the “level of receptor protein (immunoblot)” value with A1-receptor-Y^288A [1] (HEK293 stably expressing A1-receptor-Y288A-YFP, 24 hours, 1 μM DPCPX, 2 μM EHNA, 0.5 μM iodotubercidin, 10 μM dipyridamole) is reported as “elevated levels of the receptor protein”. Further, in the test on A1-receptor-Y^288A [1] (incubation 1, 2, 4, 8 or 24 hours), the “time of maximum chaperoning effect” value turned out to be 24 h.

As to `O=[N+]([O-])c1ccc(CSc2ncnc3c2ncn3[C@@H]2O[C@H](CO)[C@@H](O)[C@H]2O)cc1` [NBMPR, S-(4-nitrobenzyl)-6-thioinosine], the “role of blockage of adenosine efflux in receptor upregulation” value with A1-receptor-Y^288A [1] (24 hours) is listed as “indispensable for receptor upregulation”.

Turning to `OCCN(CCO)c1nc(N2CCCCC2)c2nc(N(CCO)CCO)nc(N3CCCCC3)c2n1` [dipyridamole], the values for the Ki at human ENT1 and on human ENT2 were about 5 nM and about 350 nM, respectively. Moreover, in the test on A1-receptor-Y^288A [1] (24 hours), the “role of blockage of adenosine efflux in receptor upregulation” value was “indispensable for receptor upregulation”. In addition, the “receptor upregulation with only one of the inhibitors (immunoblot)” value in the test with A1-receptor-Y^288A [1] (setting [6]) was “not present”. Also, the “binding to the A1 receptor” value on A1 receptor is “neither EHNA nor 5-iodotubercidin nor dipyridamole per se, nor their combination, used in the experiments bound to the A1 receptor”.

In the case of `O=C1N[C@@H]2[C@@H](O)[C@@H](O)[C@H](O)[C@@H](CO)N2C1=O` [kifunensine], the “binding of [3H]DPCPX by the receptors accumulated after treatment” value with A1-receptor-Y^288A [3] was “failed to bind the antagonist radioligand [^3H]DPCPX”.
